Laboratory results taken from article PMC8802628, “Selective activation of PFKL suppresses the phagocytic oxidative burst” (Cell, 2021).

Experiments:
[1] = target: T1, GSDMD (Homo sapiens, UniProt P57764); assay: TR-FRET liposome cargo release (GSDMD pore formation); assay type: biochemical; conditions: 10 μM
T1 sequence (P57764 1-484): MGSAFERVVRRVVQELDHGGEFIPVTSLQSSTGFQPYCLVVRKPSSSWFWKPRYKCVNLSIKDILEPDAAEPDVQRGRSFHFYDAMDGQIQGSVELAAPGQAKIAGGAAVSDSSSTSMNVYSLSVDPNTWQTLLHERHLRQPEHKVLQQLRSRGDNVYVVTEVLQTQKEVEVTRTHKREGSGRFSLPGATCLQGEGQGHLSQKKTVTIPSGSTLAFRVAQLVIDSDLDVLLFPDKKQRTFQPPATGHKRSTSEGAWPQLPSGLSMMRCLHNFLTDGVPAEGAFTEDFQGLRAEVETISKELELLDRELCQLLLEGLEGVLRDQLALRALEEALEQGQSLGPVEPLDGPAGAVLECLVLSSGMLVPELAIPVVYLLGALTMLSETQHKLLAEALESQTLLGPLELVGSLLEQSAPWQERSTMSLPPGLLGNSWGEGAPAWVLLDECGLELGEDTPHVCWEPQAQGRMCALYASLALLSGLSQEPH
Description: GSDMD-dependent liposome cargo release was conducted by Confluence Discovery Technologies with modifications to the procedure described previously ([Aglietti et al., 2016]). Briefly, liposomes with an encapsulated cargo of europium-chelate conjugated biotin were formed from a lipid mixture of DOPC:DOPE (1:1). 0.15 mg/mL of cargo-loaded liposomes were mixed with 0.3 μM of recombinant GSDMD and incubated with 10 μM LDC7559, 10 μM disulfiram or DMSO vehicle. 0.15 μM caspase-4 and 50 nM streptavidin-Alexa Fluor 647 were added and TR-FRET was read over 1 h using a PHERAstar FSX Microplate Reader (BMG Labtech) equipped with a TR-FRET module.

[2] = tested on: PMNs; assay: Phagocytosis of zymosan particles by PMNs; assay type: cell-based, human; conditions: neutrophils, zymosan 2 h
Description: Figure S7. NA-11 activates PFKL to prevent the oxidative burst and impair neutrophil defenses, related to Figures 4 and 6
(A) PFK1 activity in PMN lysates. Cells were pretreated with 0.5 mM NA-11, 5 mM LDC7559, 100 mM apocynin, 200 mM thionicotinamid e (TN), 1 mM MEK inhibitor U0126, or DMSO vehicle for 30 min, or 1 mM proteasome inhibitor bortezomib for 1 h, and then activated with 50 nM PMA for 30 min where indicated. Bars represent the mean ± s.d. of cells from 3 donors. (B) NADH:NAD+ ratio in PMA-activated PMNs. Cells were pretreated with 0.5 mM NA-11 or DMSO vehicle for 30 min, and then activated with 50 nM PMA for 30 min. Data are the mean ± s.d. of cells from 3 donors. (C) Immunolabeling of citrullinated histone H3 (magenta) and myeloperoxidase (red) in PMNs pretreated with 0.5 mM NA-11 or DMSO vehicle for 30 min and then stimulated for 4 h with 50 nM PMA, 10 mg/mL extracellular LPS, 0.5 mg/mL cholesterol crystals, or 25 mM nigericin. Chromatin is stained green. Scale bar, […]. Results are representative of 3 independent experiments.
(D) Fluorescence micrographs of PMNs pretreated with 0.5 mM NA-11, 200 mM thionicotinamide (TN), 0.5 mM NA-4, or DMSO vehicle for 30 min, and then incubated with serum-opsonized Texas Red-conjugated zymosan particles (10 mg/mL) for 2 h. […]

In the case of `COc1ccccc1-c1cc2n(n1)Cc1ccc(NC(C)=O)cc1OC2` [LDC7559, reference compound], the “liposome permeabilization by GSDMD pore-forming fragment” value [1] is reported as “nor did it prevent the GSDMD pore-forming fragment from permeabilizing liposomes”.
In the case of `CC(=O)Nc1ccc2c(c1)OCc1cc(-c3ccccc3C#CCCCO)nn1C2` [NA-11], the “phagocytosis (intracellular zymosan particles)” value [2] is reported as “neither NA-11 nor TN affected phagocytosis”.
